Data: ChEMBL document CHEMBL6103652, “Niacin Ester Derivative of Brefeldin A as a Potential Dual-Target Arf1/BMX Inhibitor for Bladder Cancer” (J Nat Prod, 2025)
Active and inactive are the calls of the source. The rule behind the calls is not given here.

Legend:
[1] = test system: Bel-7402; test: Antiproliferative activity against human Bel-7402 cells assessed as inhibition of cell proliferation measured after 72 hrs by MTT assay; type: functional, cell-based; conditions: Bel-7402, 72 h
[2] = Downregulation of BMX expression level in human T24 cells at 0.5 uM incubated for 24 hrs by Western blotting analysis relative to control; type: functional, T-24
[3] = Downregulation of p-STAT3 expression level in human T24 cells at 0.5 uM incubated for 24 hrs by Western blotting analysis relative to control; type: functional, T-24
[4] = test system: T-24; test: Inhibition of cell migration in human T24 cells at 0.50 uM incubated for 12 hrs by scratch assay (reference value: 66 %); type: functional
[5] = MRT(0 to t) in Sprague-Dawley rat at 5 mg/kg, iv measured upto 24 hrs; type: ADME, organism-based; conditions: in vivo
[6] = test system: L1210; test: Antiproliferative activity against mouse L1210 cells assessed as inhibition of cell proliferation measured after 72 hrs by MTT assay; type: functional, cell-based; conditions: L1210, 72 h
[7] = test system: T-24; test: Induction in apoptosis in human T24 cells assessed as late apoptotic cells at 0.5 uM incubated for 48 hrs by Annexin V-FITC staining based flow cytometry analysis (reference value: 4.78 %); type: functional
[8] = Downregulation of p-AKT expression level in human T24 cells at 0.13 to 0.50 uM incubated for 24 hrs by Western blotting analysis relative to control; type: functional, T-24; conditions: dose 0.13-0.5 µM, at 0.13 to 0.5 µM
[9] = test system: T-24; test: Inhibition of cell migration in human T24 cells at 0.125 uM incubated for 12 hrs by scratch assay (reference value: 66 %); type: functional; conditions: T-24, 12 h
[10] = test system: T-24; test: Induction of cell cycle arrest in human T24 cells assessed as accumulation of cells at G2/M phase at 0.25 uM incubated for 24 hrs by RNase A/Propidium Iodide staining based flow cytometry analysis (reference value: 22.67 %); type: functional
[11] = test system: T-24; test: Induction in apoptosis in human T24 cells assessed as viable cells at 0.5 uM incubated for 48 hrs by Annexin V-FITC staining based flow cytometry analysis (reference value: 90.44 %); type: functional; conditions: read-out: Activity
[12] = Cmax in Sprague-Dawley rat at 5 mg/kg, iv measured upto 24 hrs; type: ADME, organism-based; conditions: in vivo
[13] = Solubility of the compound in aqueous saline; type: physicochemical
[14] = test system: T-24; test: Induction of cell cycle arrest in human T24 cells assessed as accumulation of cells at G1 phase at 0.13 uM incubated for 24 hrs by RNase A/Propidium Iodide staining based flow cytometry analysis (reference value: 43.80 %); type: functional
[15] = test system: T-24; test: Induction in apoptosis in human T24 cells assessed as necrotic cells at 0.5 uM incubated for 48 hrs by Annexin V-FITC staining based flow cytometry analysis (reference value: 1.14 %); type: functional
[16] = test system: HT-29; test: Antiproliferative activity against human HT-29 cells assessed as inhibition of cell proliferation measured after 72 hrs by MTT assay; type: functional, cell-based; conditions: HT-29, 72 h
[17] = Cytotoxicity against human LO2 cells measured after 72 hrs by MTT assay; type: toxicity, cell-based, L02
[18] = test system: T-24; test: Induction in apoptosis in human T24 cells assessed as early apoptotic cells at 0.13 uM incubated for 48 hrs by Annexin V-FITC staining based flow cytometry analysis (reference value: 3.64 %); type: functional
[19] = test system: T-24; test: Induction in apoptosis in human T24 cells assessed as necrotic cells at 0.25 uM incubated for 48 hrs by Annexin V-FITC staining based flow cytometry analysis (reference value: 1.14 %); type: functional
[20] = test system: MB49; test: Antitumor immunity against mouse MB49 cells implanted in male C57BL/6 mouse assessed as increase in infiltration of CD3+ cells at 1 mg/kg,iv bid measured after 14 days immunofluorescence based analysis; type: functional, organism-based; conditions: time 14.0 day
[21] = test system: T-24; test: Inhibition of cell migration in human T24 cells at 0.125 uM incubated for 24 hrs by scratch assay (reference value: 88 %); type: functional; conditions: T-24, 24 h
[22] = test system: HCT-116; test: Antiproliferative activity against human HCT-116 cells assessed as inhibition of cell proliferation measured after 72 hrs by MTT assay; type: functional, cell-based; conditions: HCT-116, 72 h
[23] = test system: T-24; test: Inhibition of colony formation in human T24 cells at 0.50 uM measured after 10 days by crystal violet staining based analysis relative to control; type: functional; conditions: T-24, 240 h, time 10 day
[24] = test system: T-24; test: Antiproliferative activity against human T24 cells assessed as inhibition of cell proliferation at 0.25 uM incubated for 72 hrs by MTT assay relative to control; type: functional
[25] = test system: T-24; test: Induction of cell cycle arrest in human T24 cells assessed as accumulation of cells at S phase at 0.13 uM incubated for 24 hrs by RNase A/Propidium Iodide staining based flow cytometry analysis (reference value: 31.27 %); type: functional
[26] = Solubility of the compound in PEG400; type: physicochemical
[27] = test system: T-24; test: Inhibition of cell migration in human T24 cells at 0.50 uM incubated for 24 hrs by scratch assay (reference value: 88 %); type: functional; conditions: T-24, 24 h
[28] = Antitumor activity against mouse MB49 cells implanted in male C57BL/6 mouse model assessed as tumor growth inhibition at 1 mg/kg,iv bid measured after 14 days relative to control; type: functional; conditions: MB49, 336 h, time 14 day, read-out: TGI
[29] = Toxicity in male C57BL/6 mouse allografted with mouse MB49 cells assessed as tumor cell necrosis at 1 mg/kg,iv bid measured after 14 days by H and E staining based analysis; type: organism-based; conditions: in vivo, 336 h, time 14 day
[30] = Selectivity index, ratio of IC50 for cytotoxicity against human LO2 cells to IC50 for antiproliferative activity against human T24 cells; type: toxicity, cell-based; conditions: LO2 cells and T24 cells, read-out: Ratio IC50
[31] = test system: T-24; test: Induction of cell cycle arrest in human T24 cells assessed as accumulation of cells at S phase at 0.50 uM incubated for 24 hrs by RNase A/Propidium Iodide staining based flow cytometry analysis (reference value: 31.27 %); type: functional; conditions: dose 0.5 µM
[32] = test system: T-24; test: Induction of cell cycle arrest in human T24 cells assessed as accumulation of cells at G1 phase at 0.50 uM incubated for 24 hrs by RNase A/Propidium Iodide staining based flow cytometry analysis (reference value: 43.80 %); type: functional; conditions: dose 0.5 µM
[33] = test system: T-24; test: Induction in apoptosis in human T24 cells assessed as early apoptotic cells at 0.5 uM incubated for 48 hrs by Annexin V-FITC staining based flow cytometry analysis (reference value: 3.64 %); type: functional
[34] = Toxicity in male C57BL/6 mouse allografted with mouse MB49 cells assessed as body weight change at 1 mg/kg,iv bid measured after 14 days; type: organism-based; conditions: in vivo, 336 h, time 14 day
[35] = test system: MB49; test: Antitumor immunity against mouse MB49 cells implanted in male C57BL/6 mouse assessed as increase in infiltration of CD8+T cells at 1 mg/kg,iv bid measured after 14 days immunofluorescence based analysis; type: functional, organism-based; conditions: time 14.0 day
[36] = Toxicity in ICR mouse assessed as body weight change at 100 mg/kg, ip administered once for 14 days; type: organism-based; conditions: in vivo, 336 h, time 14 day
[37] = test system: T-24; test: Antiproliferative activity against human T24 cells assessed as inhibition of cell proliferation at 0.25 uM incubated for 120 hrs by MTT assay relative to control; type: functional

- IC50 [1]: 460 nM
- MRT last at 24 h [5]: 8.4 min
- IC50 [6]: 6180 nM
- Cmax [12]: 1460 ng/mL
- solubility [13]: < 1000 µg/mL
- IC50 [16]: 410 nM
- IC50 [22]: 580 nM
- solubility [26]: Not_active
Structure (SMILES): C[C@H]1CCC/C=C/[C@@H]2C[C@H](O)C[C@H]2[C@H](OC(=O)c2cccnc2)/C=C/C(=O)O1
- Activity [2]: 35%
- Activity [3]: 55%
- wound closure at 0.5 µM [4]: 13%
- Activity [7]: 24.81%
- Activity [8]: 46%
- wound closure at 0.125 µM [9]: 22%
- Activity [10]: 19.43%
- viability at 0.5 µM [11]: 65.6%
- Activity [14]: 47.36%
- Activity [15]: 3.49%
- IC50 at 72 h [17]: 790 nM
- Activity [18]: 5.52%
- Activity [19]: 3.33%
- Activity [20]: Active
- wound closure at 0.125 µM [21]: 44%
- inhibition at 0.5 µM [23]: 100%
- inhibition at 0.25 µM [24]: 54%
- Activity [25]: 28.6%
- wound closure at 0.5 µM [27]: 17%
- inhibition in vivo at 1 mg/kg [28]: 51%
- Activity [29]: Non-toxic
- selectivity ratio [30]: 3.59
- Activity [31]: 19.52%
- Activity [32]: 63.82%
- Activity [33]: 6.11%
- Activity [34]: Non-toxic
- Activity [35]: Active
- Activity [36]: Non-toxic
- inhibition at 0.25 µM [37]: 91%
